pIC50: −log10 of the molar value. Where two headings read alike, the source gives them in different places.
Legend:
IMP-1 = IMP-1 (Serratia marcescens, UniProt P52699); assay: biochemical; assay type: biochemical; conditions: fluorescence assay, CCF2-FA substrate, 2 pM enzyme, 2 hours at 25° C.; read-out: IMP-1 IC50
How it was run: (§1)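 Inhibitor was mixed with the metallo-β-lactamase and CCF2-FA. After 2 hours at 25° C, fluorescence of the coumarin–fluorescein cephalosporin substrate was read. IC50 was calculated with a 4-parameter fit.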

NDM-1 = NDM-1 (Klebsiella pneumoniae, UniProt C7C422); assay: biochemical; assay type: biochemical; conditions: fluorescence assay, CCF2-FA substrate, 1 pM enzyme, 2 hours at 25° C.; read-out: NDM-1 IC50
How it was run: as §1

VIM-1 = VIM-1 (Pseudomonas aeruginosa (strain ATCC 15692 / DSM 22644 / CIP 104116 / JCM 14847 / LMG 12228 / 1C / PRS 101 / PAO1), UniProt A0A0F7KYQ8); assay: biochemical; conditions: CCF2-FA substrate, 30 pM enzyme, 2 hours at 25° C.
How it was run: as §1

[1] = tested on: Escherichia coli expressing NDM-1 (CLB30005, CLB30016); assay type: cell-based; conditions: NDM-1 strain, with imipenem 1 μg/ml, 95% inhibition of growth
How it was run: (§2)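 Imipenem 1 μg/ml + inhibitor; MBL-expressing clinical strains in 1.1×CAMHB, inoculum from saline suspension diluted 1:100; 35° C, 22–24 h; absorbance read-out.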

[2] = tested on: Klebsiella pneumoniae expressing VIM-1 (IHMA599644); assay type: cell-based; conditions: VIM-1 strain IHMA599644, with imipenem 1 μg/ml, 95% inhibition of growth
How it was run: as §2

[3] = tested on: Serratia marcescens expressing IMP-1 (CL5741); assay type: cell-based; conditions: IMP-1 strain CL5741, with imipenem 1 μg/ml, 95% inhibition of growth
How it was run: as §2

[4] = tested on: Pseudomonas aeruginosa efflux+ (MB9798), IMP-1; assay type: cell-based; conditions: concentration restoring susceptibility to imipenem at 2 μg/mL in the presence of a class A, C, D serine β-lactamase inhibitor closely related to relebactam
How it was run: (§3)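 PAO1 pair, broth microdilution; fixed β-lactam (imipenem/ceftazidime) at ~CLSI breakpoint + fixed class A/C BLI for AmpC; serial MBLi titration; endpoint = MBLi conc. restoring susceptibility; MB9798:MB9799 ratio = efflux liability.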

[5] = tested on: Pseudomonas aeruginosa efflux− (MB9799), IMP-1; assay type: cell-based; conditions: concentration restoring susceptibility to imipenem at 2 μg/mL in the presence of a class A, C, D serine β-lactamase inhibitor closely related to relebactam
How it was run: as §3

[6] = tested on: Pseudomonas aeruginosa MB9798 vs MB9799; conditions: ratio MITC95 PA_9798/MITC95 PA_9799
How it was run: as §3

[7] = fluorescence assay, read-out: VIM-1 IC50

Chain of NDM-1 (C7C422 whole entry, looked up, species assumed): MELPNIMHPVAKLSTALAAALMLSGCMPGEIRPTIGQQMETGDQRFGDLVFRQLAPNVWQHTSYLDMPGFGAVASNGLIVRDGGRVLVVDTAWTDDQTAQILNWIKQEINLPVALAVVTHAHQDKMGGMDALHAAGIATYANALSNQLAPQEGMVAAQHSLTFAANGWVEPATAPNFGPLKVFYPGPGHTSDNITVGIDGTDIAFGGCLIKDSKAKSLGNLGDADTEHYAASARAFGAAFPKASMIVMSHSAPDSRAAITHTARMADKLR
Chain of IMP-1 (P52699 whole entry, looked up, species assumed): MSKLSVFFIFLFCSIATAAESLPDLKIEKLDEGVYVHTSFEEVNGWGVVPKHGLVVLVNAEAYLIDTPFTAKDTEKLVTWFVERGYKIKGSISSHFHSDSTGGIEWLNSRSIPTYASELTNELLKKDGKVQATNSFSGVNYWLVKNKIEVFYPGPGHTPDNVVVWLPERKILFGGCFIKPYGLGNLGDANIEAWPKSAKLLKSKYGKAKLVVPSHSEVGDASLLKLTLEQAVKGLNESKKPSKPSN

Row | Structure (SMILES) | pIC50 (IMP-1) | pIC50 (NDM-1) | pIC50 (VIM-1; [7]) | Escherichia coli MITC95 [1] | Klebsiella pneumoniae MITC95 [2] | Serratia marcescens MITC95 [3] | P. aeruginosa expressing IMP-1, efflux + (MB9798) MITC95 [4] | P. aeruginosa expressing IMP-1, efflux − (MB9799) MITC95 [5] | Efflux ratio [6] | pIC50 (VIM-1; VIM-1 IC50, fluorescence assay)
1 | Nc1nc2c(-c3ccc(S(=O)(=O)NC4CNC4)c(S(N)(=O)=O)c3-c3nn[nH]n3)cccc2[nH]1 [Example 252, 4-(2-amino-1H-benzo[d]imidazol-4-yl)-N1-(azetidin-3-yl)-3-(2H-tetrazol-5-yl)benzene-1,2-disulfonamide] | 9.18 | 10.37 | 9.83 | 0.4271 µM | 0.8359 µM | 0.7383 µM | 0.418 µM | 0.6133 µM | 0.68 | –
2 | CN(C1CNC1)S(=O)(=O)c1ccc(-c2cccc3[nH]c(N)nc23)c(-c2nn[nH]n2)c1S(N)(=O)=O [Example 255, 4-(2-amino-1H-benzo[d]imidazol-4-yl)-N1-(azetidin-3-yl)-N1-methyl-3-(2H-tetrazol-5-yl)benzene-1,2-disulfonamide] | 8.55 | 9.95 | 9.03 | 0.3906 µM | 0.7813 µM | 0.7813 µM | 1.563 µM | 0.7813 µM | 2.00 | –
3 | CN1CC(NS(=O)(=O)c2ccc(-c3cccc4[nH]c(N)nc34)c(-c3nn[nH]n3)c2S(N)(=O)=O)C1 [Example 256, 4-(2-amino-1H-benzo[d]imidazol-4-yl)-N1-(1-methylazetidin-3-yl)-3-(2H-tetrazol-5-yl)benzene-1,2-disulfonamide] | 9.22 | 10.38 | 9.78 | 0.3906 µM | 1.563 µM | 0.7813 µM | 0.7813 µM | 0.7813 µM | 1.00 | –
4 | CC1(NS(=O)(=O)c2ccc(-c3cccc4[nH]c(N)nc34)c(-c3nn[nH]n3)c2S(N)(=O)=O)CNC1 [Example 257] | 9.19 | 10.48 | – | 0.3906 µM | 0.7813 µM | 0.7813 µM | 0.7813 µM | 0.7813 µM | 1.00 | 9.80
5 | NCCCCNS(=O)(=O)c1ccc(-c2cccc3[nH]c(N)nc23)c(-c2nn[nH]n2)c1S(N)(=O)=O [Example 258, 4-(2-amino-1H-benzo[d]imidazol-7-yl)-N1-(4-aminobutyl)-3-(2H-tetrazol-5-yl)benzene-1,2-disulfonamide] | 9.16 | 10.27 | 9.81 | 0.1953 µM | 1.563 µM | 0.7813 µM | 0.7813 µM | 0.7813 µM | 1.00 | –
6 | Nc1nc2c(-c3ccc(S(=O)(=O)NC[C@H]4CCNC4)c(S(N)(=O)=O)c3-c3nn[nH]n3)cccc2[nH]1 [Example 259, (S)-4-(2-amino-1H-benzo[d]imidazol-4-yl)-N1-(pyrrolidin-3-ylmethyl)-3-(2H-tetrazol-5-yl)benzene-1,2-disulfonamide] | 9.08 | 10.26 | – | 0.3906 µM | 1.563 µM | 0.7813 µM | 0.7813 µM | 0.7813 µM | 1.00 | 9.64
7 | Nc1nc2c(-c3ccc(S(=O)(=O)NC4CCNCC4)c(S(N)(=O)=O)c3-c3nn[nH]n3)cccc2[nH]1 [Example 260, 4-(2-amino-1H-benzo[d]imidazol-4-yl)-N1-(piperidin-4-yl)-3-(1H-tetrazol-5-yl)benzene-1,2-disulfonamide] | 9.19 | 10.37 | 9.82 | 0.7813 µM | 1.563 µM | 1.563 µM | 0.7813 µM | 0.7813 µM | 1.00 | –
8 | Nc1nc2c(-c3ccc(S(=O)(=O)NC[C@H]4CCCN4)c(S(N)(=O)=O)c3-c3nn[nH]n3)cccc2[nH]1 [Example 261, (R)-4-(2-amino-1H-benzo[d]imidazol-4-yl)-N1-(pyrrolidin-2-ylmethyl)-3-(2H-tetrazol-5-yl)benzene-1,2-disulfonamide] | 9.19 | 10.16 | – | 0.1953 µM | 0.7813 µM | 0.7813 µM | 0.7813 µM | 0.7813 µM | 1.00 | 9.65
9 | Nc1nc2c(-c3ccc(S(=O)(=O)NC[C@@H]4CCCN4)c(S(N)(=O)=O)c3-c3nn[nH]n3)cccc2[nH]1 [Example 262, (S)-4-(2-amino-1H-benzo[d]imidazol-4-yl)-N1-(pyrrolidin-2-ylmethyl)-3-(2H-tetrazol-5-yl)benzene-1,2-disulfonamide] | 9.03 | 10.11 | – | 0.1953 µM | 0.7813 µM | 0.7813 µM | 0.7813 µM | 0.7813 µM | 1.00 | 9.53
10 | Nc1nc2c(-c3ccc(S(=O)(=O)NC[C@@H]4CCNC4)c(S(N)(=O)=O)c3-c3nn[nH]n3)cccc2[nH]1 [Example 263, (R)-4-(2-amino-1H-benzo[d]imidazol-4-yl)-N1-(pyrrolidin-3-ylmethyl)-3-(2H-tetrazol-5-yl)benzene-1,2-disulfonamide] | 9.06 | 10.34 | – | 0.3906 µM | 1.563 µM | 0.7813 µM | 0.7813 µM | 0.7813 µM | 1.00 | 9.69
11 | CC[C@@H](CN)NS(=O)(=O)c1ccc(-c2cccc3[nH]c(N)nc23)c(-c2nn[nH]n2)c1S(N)(=O)=O [Example 264, (S)-4-(2-amino-1H-benzo[d]imidazol-4-yl)-N1-(1-aminobutan-2-yl)-3-(2H-tetrazol-5-yl)benzene-1,2-disulfonamide] | 8.23 | 9.70 | 9.33 | 0.7813 µM | 1.563 µM | 1.563 µM | 3.125 µM | 0.7813 µM | 4.00 | –
12 | CC[C@H](CN)NS(=O)(=O)c1ccc(-c2cccc3[nH]c(N)nc23)c(-c2nn[nH]n2)c1S(N)(=O)=O [Example 265, (R)-4-(2-amino-1H-benzo[d]imidazol-4-yl)-N1-(1-aminobutan-2-yl)-3-(2H-tetrazol-5-yl)benzene-1,2-disulfonamide] | 9.53 | 10.62 | 10.03 | 1.563 µM | 1.563 µM | 0.7813 µM | 0.7813 µM | 0.7813 µM | 1.00 | –

Reference: US10221163B2 (priority 2015, dated 2019)
